Tests used:
[1] = tested on: HIV-1 production in U1 cells; test: U1 monocytic cell assay, IL-18-induced HIV-1 p24 antigen; type: cell-based
Source text: U1 monocytic cell assay. U1 cells are obtained from the AIDS Research and Reference Reagent Program, National Institute of Allergy and Infectious Diseases, NIH. U1 cells are maintained in T-175 polystyrene flasks (Falcon, Becton Dickinson, Franklin Lakes, N.J.) in medium and used when in log phase growth. Cells are counted in a hemacytometer, examined for viability by Trypan blue exclusion (>95% for all experiments) and resuspended in fresh medium at 2×10^6 per ml. Two-hundred fifty […] are added to wells of 24-well polystyrene tissue culture plates (Falcon), followed by the addition of medium or AAT to produce the final concentration to be tested in a volume of […]. After 1.0 hr of incubation (37° C., 5% CO2), 50 ml of medium (control) or stimulus diluted in medium are added to wells to produce the final concentration of stimulus to be tested. The final culture volumes are […] and contained 1×10^6 cells per ml. After 48 hr of incubation (37° C. and 5% CO2) 50 ml of 10% (vol/vol) Triton-X-100 (Fisher Scientific, Fair Lawn, N.J.) is added to each culture (final concentration of 1% vol/vol), and cultures are frozen and thawed once. This is followed by assay for HIV-1 p24 antigen by ELISA with a lower limit of detection of 31 pg/ml (NCI-Frederick Cancer Research and Development Center, Frederick, Md.). The disruption of cells due to the addition of Triton-X-100 and the freeze-thaw cycle produced cell lysates and enabled assessment of total (secreted and cell-associated) production of p24 antigen.
Data are presented as means±SEM. Group means are compared by ANOVA using Fisher's least significant difference. For data expressed as percent change, the values for p24 in control cultures (medium alone) are subtracted from those for each culture-containing stimulus. The p24 concentrations in cultures conducted in the presence of stimulus alone are set at 100%. Percent p24 in cultures containing stimulus and AAT are calculated by dividing the measured p24 by that present in cultures containing stimulus alone. The resultant fraction is expressed as a percent.
The U1 cell line is derived from human monocytic U937 cells into which 2 copies of HIV-1 provirus are incorporated into host genome. Exposing U1 cells to pro-inflammatory cytokines such as IL-18, IL-1, IL-6 and TNF, phorbol esters or hyperosmolarity results in the induction of HIV-1 as assessed by p24 antigen. Stimulation of U1 cells with 0.5 nM IL-18 induced large amounts of p24 antigen after 48 hr of incubation in 3 separate experiments. U1 cells cultured in medium alone (control) contained a mean of 41.3±11.5 pg/ml p24 antigen, which is increased 150-fold to 6,235±1,775 pg/ml p24 following stimulation with IL-18. […] At 1, 2 and 3 mg/ml AAT, the percent reductions observed compared to stimulation with IL-18 alone are 65±1.8, 93±3.0 and 98±1%, respectively.

[2] = tested on: NF-κB; test: IL-18-induced NF-κB expression; type: cell-based; settings: compared with IL-18 alone (lane 4)
[3] = tested on: HIV-1 strain A018A in MAGI-CCR-5 cells; type: cell-based; settings: compared with FVYLI (FIG. 4); alone or in combination; not shown
[4] = tested on: HIV-infected CCRF-CEM and uninfected Molt-4 cells; settings: cited from earlier work

Row | Molecule | effect on HIV production in MAGI cells [3] | also measured
1 | Cc1cccc(Cc2nnc(C(=O)C(NC(=O)[C@@H]3CCCN3C(=O)[C@@H](NC(=O)OCc3ccccc3)C(C)C)C(C)C)o2)c1 (stereo partly shown) [P3 inh] |  | anti-HIV effect ([1]; same experimental condition as in Example 1 (FIG. 11)): significant anti-HIV effect; IL-18-induced NF-κB expression [2]: reduced
2 | AVFLM: short peptide related to C-terminal pentapeptide of AAT | more or less similar effect | 
3 | FAFLM: short peptide related to C-terminal pentapeptide of AAT | more or less similar effect | 
4 | FIIMI: short peptide related to C-terminal pentapeptide of AAT | more or less similar effect | 
5 | FLFAV: short peptide related to C-terminal pentapeptide of AAT | more or less similar effect | 
6 | FLFCI: short peptide related to C-terminal pentapeptide of AAT | more or less similar effect | 
7 | FLFFI: short peptide related to C-terminal pentapeptide of AAT | more or less similar effect | 
8 | FLFLI: short peptide related to C-terminal pentapeptide of AAT | more or less similar effect | 
9 | FLFVL: short peptide related to C-terminal pentapeptide of AAT | more or less similar effect | 
10 | FLFVV: short peptide related to C-terminal pentapeptide of AAT | more or less similar effect | 
11 | FLMFI: short peptide related to C-terminal pentapeptide of AAT | more or less similar effect | 
12 | FLMII: short peptide related to C-terminal pentapeptide of AAT | more or less similar effect | 
13 | FLVFI: short peptide related to C-terminal pentapeptide of AAT | more or less similar effect | 
14 | FMLLI: short peptide related to C-terminal pentapeptide of AAT | more or less similar effect | 
15 | FVALM: short peptide related to C-terminal pentapeptide of AAT | more or less similar effect | 
16 | FVFAM: short peptide related to C-terminal pentapeptide of AAT | more or less similar effect | 
17 | FVFLA: short peptide related to C-terminal pentapeptide of AAT | more or less similar effect | 
18 | FVFLM: short peptide related to C-terminal pentapeptide of AAT | more or less similar effect | 
19 | FVYLI: carboxyterminal peptide derived but not necessarily identical to a respective C-terminal pentapeptide from AAT | more or less similar effect | 
20 | Prolastin: commercially available purified variant of AAT sold by Bayer, used as control AAT preparation |  | anti-HIV activity ([1]; doses comparable to the composition of the invention (FIG. 6)): fails to display anti-HIV activity
21 | UTI: Human urinary trypsin inhibitor, a protein indistinguishable from ITI (protein, UniProt P02760 206-352, looked up, Inter-alpha-trypsin inhibitor light chain) Inter-alpha-trypsin inhibitor …: AVLPQEEEGSGGGQLVTEVTKKEDSCQLGYSAGPCMGMTSRYFYNGTSMACETFQYGGCMGNGNNFVTEKECLQTCRTVAACNLPIVRGPCRAFIQLWAFDAVKGKCVLFPYGGCQGNGNKFYSEKECREYCGVPGDGDEELLRFSN |  | concentration range of dose-dependent inhibition of syncytium formation [4]: 0.1 to 1 mM

Source: patent publication US7807781B2, “Inhibitors of serine protease activity and their use in methods and compositions for treatment of viral infections” (The Regents of the University of Colorado, priority 1999, dated 2010)
